Drawing on ChEMBL document CHEMBL1143189, this text covers pKb for one compound.

The test concerns the target T1, Type-1 angiotensin II receptor A (Rattus norvegicus) (UniProt P25095).
T1 sequence (whole entry): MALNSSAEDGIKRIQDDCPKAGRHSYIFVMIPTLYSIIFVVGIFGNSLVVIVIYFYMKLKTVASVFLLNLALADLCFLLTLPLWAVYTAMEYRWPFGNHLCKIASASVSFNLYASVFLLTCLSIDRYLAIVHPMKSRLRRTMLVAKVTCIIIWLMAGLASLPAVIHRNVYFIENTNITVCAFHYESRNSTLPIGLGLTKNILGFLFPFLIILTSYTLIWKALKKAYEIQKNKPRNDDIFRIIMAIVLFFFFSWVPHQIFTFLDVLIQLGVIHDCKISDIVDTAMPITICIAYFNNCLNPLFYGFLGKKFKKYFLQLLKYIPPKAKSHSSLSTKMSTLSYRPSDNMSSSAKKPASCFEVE
The experiment in a line: Antagonist activity at rat AT1 receptor expressed in CHO cells assessed as angiotensin 2-evoked increase in intracellular calcium level. It is filed as functional, cell-based. On the technique in general: Calcium flux is commonly read through the fluorescence of an indicator in the cells.

Each structure is given as a SMILES string.

One may read the pKb as the negative decadic logarithm of the Kb, by convention in mol/L. For the compound `CCCCc1ncc(/C=C(\Cc2cccs2)C(=O)O)n1Cc1ccc(C(=O)O)cc1`, the pKb stood at 8.8.
